# In patent publication US4997850A, “Treating agent for osteroarthritis” (Kureha Kagaku Kogyo Kabushiki Kaisha, priority 1989, dated 1991):
# B1: IL-1α: interleukin 1 alpha, added to cultured cartilage matrix to increase proteoglycan release (protein, UniProt P01583 113-271, looked up)
# Interleukin-1 alpha: SAPFSFLSNVKYNFMRIIKYEFILNDALNQSIIRANDQYLTAAALHNLDEAVKFDMGAYKSSKDDAKITVILRISKTQLYVTAQDEDQPVLLKEMPEIPKTITGSETNLLFFWETHGTKNYFTSVAHPNLFIATKQDYWVCLAGGPPSITDFQILENQA
# Assays:
# [1] = Acute toxicity (LD50) of ACP in mice; format: in vivo; conditions: for LD50 at 168 h: in vivo, male; for LD50: female, 10080 min
# Experimental: (§1) For oral administration, a suspension of ACP dispersed in an aqueous solution of 0.5% methylcellulose and 0.4% Tween 80 (nonionic surfactant, manufactured by TOKYO KASEI, Co., Ltd.) was prepared and administered to the animals via a stomach sonde. For subcutaneous administration, a suspension of ACP dispersed in an aqueous physiological saline solution containing 0.5% of carboxymethyl cellulose sodium (hereinafter referred to as "CMC") was prepared and injected to the animals with a syringe.
# [2] = Acute toxicity (LD50) of ACP in rats; format: in vivo; conditions: for LD50 at 168 h: in vivo, male; for LD50: female, 10080 min
# Experimental: as §1
# [3] = tested on: IL-1α production in human synovial cells; test: Inhibition of IL-1α production in human synovial cells; format: cell-based; conditions: TPA and A 23187 stimulation, 40 hours
# Experimental: (§2) Human synovial membrane obtained at an operation was treated with collagenase to obtain synovial cells, which were subcultured several times and inoculated on a 12-well culture dish. On reaching to confluence, the cells were provided to the test described below. The synovial cells produce IL-1 but release only a little amount and accordingly are appropriate cells to study an inhibition or an acceleration of IL-1 intracellular production.
# (§3) Each DMSO (dimethylsulfoxide) solution containing one of ACP, PAL and PAC separately in a concentration of 400 times that of the final test and DMSO solution not containing any of the compound as a control, were diluted to 40 times in its volume with a medium containing fetal bovine serum (hereinafter referred to as "FBS") [Ham Medium]. 100 μl of the diluted solution was added to each well and further, 800 μl of the medium [Ham] was added to each well. […] The concentration of TPA and the ionophore in the medium were adjusted so that their final concentration in the well became 0.1 μg/ml and 0.2 μg/ml, respectively and a production of IL-1 was stimulated. Final volume of the liquid (medium) per well was 1 ml/well. After 40 hours of culture, liquid portion was removed from each well and 1 ml of a Ham medium was added to the remaining cells in each well. Freeze-thawing was repeated on the medium containing the cells several times to destroy all the cells in the medium and supernatants containing intracellular substances were obtained by centrifugation. IL-1α and IL-1β in the supernatant were determined by ELISA method using a prescribed enzyme-antibody-complex (manufactured by OHTSUKA SEIYAKU, Co., Ltd.) as intracellular IL-1s. [Refer to ENSHO, vol.
# [4] = tested on: IL-1β production in human synovial cells; test: Inhibition of IL-1β production in human synovial cells; format: cell-based; conditions: TPA and A 23187 stimulation, 40 hours
# Experimental: as §2, §3
# [5] = tested on: IL-1 release from human monocyte; test: Inhibition of IL-1 (IL-1α and IL-1β) release from human monocyte; format: cell-based; conditions: Homo sapiens, Monocyte, read-out: concentration at which the release of IL-1 is significantly inhibited; LPS 10 μg/ml, 42 hours
# Experimental: Monocyte were isolated from human venous blood by density-gradient centrifugation using a Ficoll-paque solution and obtained the cells having a purity of not less than 95% by purifying with a monocyte-separating plate. After dispersing the cells in a medium, RPMI 1640, containing 10% of FBS, the monocyte were inoculated in a culture dish in a ratio of 10^6 cells/3 ml/well and cultured under an atmosphere containing 5% CO2 at 37° C. for 30 minutes. Then, each 15 μl of DMSO solution of one of ACP, PAL and PAC was added to each well (a final DMSO concentration of 0.5%) and 30 minutes later a lipopolysaccharide (hereinafter referred to as "LPS"), a substance to stimulate IL-1 production, was added at a final LPS concentration of 10 μg/ml and they were cultured for 42 hours. Then, the reacted culture medium was recovered and accompanied cells with the medium were separated by centrifugation and obtained the supernatant free of cell. IL-1α and IL-1β released from the cells were measured by ELISA method in the same manner as in item (i) above.
# [6] = tested on: IL-1 release from cultured cartilage cells; test: Inhibition of IL-1 release from cultured cartilage cells; format: cell-based, rabbit; conditions: 3.3 μM; TPA and A 23187 stimulation, 24 hours
# Experimental: Cartilages were aseptically taken out from knee and shoulder joints of young rabbit, treated with a Ham medium containing 0.2% collagenase and separated each other into single cells. After washed two times with a Ham medium containing 10% FBS, the cells were dispersed into the Ham medium containing 10% FBS at a concentration of 10^5 cells/ml. […] After 24 hours of cultivation, IL-1 released into each of the supernatants was measured by a bioassay applying an incorporated amount of ^3 H-thymidine (^3 H-TdR) as an index. […] In the Figure, "Intact" means a case TPA and the ionophore were not added and accordingly no stimulation of IL-1 release was given.
# [7] = tested on: proteoglycan (PG) in cultured cartilage cells; test: Synthesis, release and remaining amount of proteoglycan (PG) in cultured cartilage cells; format: cell-based, rat
# Experimental: Costal cartilage was aseptically taken out from male SD rats of 4 weeks age, enzymatically treated to separate it into single cells, then inoculated into a 12-well culture dish and cultured under an atmosphere containing 5% CO2 at 37° C. After the chondrocytes had been grown to confluence, 1 to 10 μM of PAL or 10 to 100 μM of PAC was added and three hours later, 2 μCi of Na2^35 SO4 was further added to each well. Twenty four hours later, the synthesis amount in, release amount from and remaining amount of PG in the matrix were determined using amount of ^35 S as an index. […] In the Figures, the PG release in the control was defined as 100%. […] In FIGS. 4(a), 4(b) and 4(c), the released amount of PG means the amount representing the PG degraded in and released from cartilage matrixes, which was calculated on a basis of ^35 S in the culture medium. The remaining amount of PG means the PG not degraded in the matrixes and was also calculated in the same way as above. Sum of the released and the remaining amounts of PG is thought to be a synthesized PG.
# [8] = tested on: proteoglycan (PG) release under IL-1α; test: Proteoglycan (PG) release from prelabelled cultured cartilage matrix with addition of IL-1α; format: cell-based; conditions: 20 units of IL-1α
# Experimental: Further, to a cultured cartilage matrix, in which PG is prelabelled in advance with 1 μCi of Na2^35 SO4, 20 units of IL-1α was added to each group including control group and 10 μM of PAL, 100 μM of PAL or 10 μM of ACP was added to each test group and studied the effect of each compound to the PG release from the cells.
# [9] = tested on: leukocyte migration; conditions: cited from earlier work
# [10] = tested on: granuloma proliferation; conditions: cited from earlier work
# [11] = tested on: adjuvant arthritis; conditions: in vivo; cited from earlier work
# [12] = in vivo; cited from earlier work
# [13] = Acute toxicity (LD50) of PAL in female Jcl:ICR mice; conditions: mouse, in vivo
# Experimental: For oral administration, a suspension of PAL dispersed in an aqueous solution of 0.2% CMC was prepared (a part of PAL was dissolved in the solution) and administered to the animals via a stomach sonde. For intraperitoneal administration, a suspension of PAL dispersed in an aqueous physiological saline solution was prepared (a part of PAL was dissolved in the solution) and injected to the animals with a syringe.
# [14] = tested on: proteoglycan (PG) release under IL-1α; test: Proteoglycan (PG) release from prelabelled cultured cartilage matrix with addition of IL-1α; format: cell-based; conditions: 20 units of IL-1α, compared to control without IL-1; prelabelled 35S as 100%
molecule,measurement,setting,value
"CC(=O)Oc1ccc(C(OC(C)=O)OC(C)=O)cc1OC(C)=O [ACP, 3,4-diacetoxybenzylidene diacetate]",LD50 at 168 h,"[1]; sc, subcutaneous, Jcl:ICR mouse",> 4000 mg/kg
same,LD50 at 168 h,"[1]; oral, CD-1 mouse",> 5000 mg/kg
same,LD50,"[1]; oral, CD-1 mouse",> 5000 mg/kg
same,LD50,"[1]; subcutaneous, Jcl:ICR mouse",> 4000 mg/kg
same,LD50 at 168 h,"[2]; sc, subcutaneous, Jcl:Wistar rat",> 4000 mg/kg
same,LD50 at 168 h,"[2]; oral, Sprague-Dawley rat",> 5000 mg/kg
same,LD50,"[2]; oral, Sprague-Dawley rat",> 5000 mg/kg
same,LD50,"[2]; subcutaneous, Jcl:Wistar rat",> 4000 mg/kg
same,inhibiting activity of IL-1α production,[3]; 10 μM,strong inhibiting activity
same,inhibiting activity of IL-1β production,[4]; 10 μM,strong inhibiting activity
same,minimal effective concentration,[5],0.67 µM
same,inhibition of IL-1 release from cartilage cells,[6],inhibit the release of IL-1
same,"effect on PG synthesis, release and remaining amount (ACP)","[7]; compared with PAL and PAC, concentration not given",effect having similar tendency
same,inhibition of PG release under IL-1α,[8]; 10 μM,inhibited the release amount
same,suppressing activity of leukocyte migration,[9],suppressing activity
same,suppressing activity of granuloma proliferation,[10],suppressing activity
same,suppressing activity of adjuvant arthritis,[11],suppressing activity
same,toxicity to mammals including human,[12],very low toxic
"O=Cc1ccc(O)c(O)c1 [PAL, 3,4-dihydroxybenzaldehyde]",LD50 at 168 h,"[13]; ip, intraperitoneal",404 mg/kg
same,LD50 at 168 h,[13]; oral,1500 mg/kg
same,inhibiting activity of IL-1α production,[3]; 33 μM,strong inhibiting activity
same,inhibiting activity of IL-1β production,[4]; 33 μM,strong inhibiting activity
same,minimal effective concentration,[5],0.33 µM
same,inhibition of IL-1 release from cartilage cells,[6],inhibit the release of IL-1
same,effect on PG synthesis,"[7]; PAL 1 to 10 μM, PAC 10 to 100 μM, 24 hours",no effect
same,inhibition of PG release,"[7]; PAL 1 to 10 μM, PAC 10 to 100 μM, control release 100%",exhibited inhibiting activities on the PG release
same,remaining amount of PG in the matrix,"[7]; PAL between 1 and 3.3 μM, PAC between 10 and 100 μM",increased in proportion to the adding amount
same,inhibition of PG release under IL-1α,[8]; PAL 10 μM and 100 μM,inhibited the release amount proportionally to the amount added
same,suppressing activity of leukocyte migration,[9],suppressing activity
same,suppressing activity of granuloma proliferation,[10],suppressing activity
same,suppressing activity of adjuvant arthritis,[11],suppressing activity
same,toxicity to mammals including human,[12],very low toxic
B1,increase of PG release by IL-1α,[14],about 20%
